Results as given in ChEMBL document CHEMBL1155961, “Novel 4-aryl-pyrido[1,2-c]pyrimidines with dual SSRI and 5-HT1A activity: part 2” (Eur J Med Chem, 2009).
Active and inactive are the calls of the source. The rule behind the calls is not given here.

Key:
[1] = molecular target: Sodium-dependent serotonin transporter (Rattus norvegicus, UniProt P31652); experiment: Displacement of [3H]citalopram from SERT in rat cerebral cortex by liquid scintillation counting; type: tissue-based
[2] = molecular target: T1, 5-hydroxytryptamine receptor 1A (Rattus norvegicus, UniProt P19327); experiment: Displacement of [3H]8-OH-DPAT from 5-HT1A receptor in rat hippocampus; type: tissue-based
T1 sequence (P19327 whole entry): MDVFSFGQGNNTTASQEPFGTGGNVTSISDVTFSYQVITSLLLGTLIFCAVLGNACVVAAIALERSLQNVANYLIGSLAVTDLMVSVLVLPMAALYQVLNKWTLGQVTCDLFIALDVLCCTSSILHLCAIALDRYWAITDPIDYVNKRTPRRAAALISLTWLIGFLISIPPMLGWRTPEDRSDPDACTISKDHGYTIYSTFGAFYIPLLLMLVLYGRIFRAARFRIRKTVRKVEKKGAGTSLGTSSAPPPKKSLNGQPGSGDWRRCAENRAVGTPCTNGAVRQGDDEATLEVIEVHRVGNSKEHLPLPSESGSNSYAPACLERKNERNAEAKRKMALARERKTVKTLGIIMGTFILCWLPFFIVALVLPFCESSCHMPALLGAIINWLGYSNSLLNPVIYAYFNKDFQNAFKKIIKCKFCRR

[3] = test system: Mus musculus; experiment: Effect on hypothermia in Swiss albino mouse assessed as change in rectal body temperature at 20 mg/kg, ip after 60 mins by inducible hypothermia test; type: functional, organism-based; parameters: dose 20 mg/kg
[4] = test system: Mus musculus; experiment: Effect on hypothermia in Swiss albino mouse assessed as change in rectal body temperature at 10 mg/kg, ip after 30 mins by inducible hypothermia test; type: functional, organism-based; parameters: dose 10 mg/kg
[5] = test system: Mus musculus; experiment: Effect on hypothermia in Swiss albino mouse assessed as change in rectal body temperature at 5 mg/kg, ip after 120 mins by inducible hypothermia test; type: functional, organism-based; parameters: dose 5 mg/kg
[6] = species on record: Mus musculus; conditions: Swiss albino, 20 mg/kg
[7] = test system: Mus musculus; experiment: Effect on hypothermia in Swiss albino mouse assessed as change in rectal body temperature at 5 mg/kg, ip after 90 mins by inducible hypothermia test; type: functional, organism-based; parameters: dose 5 mg/kg
[8] = species on record: Mus musculus; conditions: Swiss albino, 20 mg/kg; remark: listed apart in the source
[9] = test system: Mus musculus; experiment: Effect on hypothermia in Swiss albino mouse assessed as change in rectal body temperature at 5 mg/kg, ip after 60 mins by inducible hypothermia test; type: functional, organism-based; parameters: dose 5 mg/kg
[10] = test system: Mus musculus; experiment: Effect on hypothermia in Swiss albino mouse assessed as change in rectal body temperature at 10 mg/kg, ip after 90 mins by inducible hypothermia test; type: functional, organism-based; parameters: dose 10 mg/kg
[11] = test system: Mus musculus; experiment: Effect on hypothermia in Swiss albino mouse assessed as change in rectal body temperature at 5 mg/kg, ip after 30 mins by inducible hypothermia test; type: functional, organism-based; parameters: dose 5 mg/kg
[12] = test system: Mus musculus; experiment: Effect on hypothermia in Swiss albino mouse assessed as change in rectal body temperature at 20 mg/kg, ip after 120 mins by inducible hypothermia test; type: functional, organism-based; parameters: dose 20 mg/kg
[13] = species on record: Mus musculus; conditions: Swiss albino, 20 mg/kg; remark: listed apart in the source
[14] = species on record: Mus musculus; conditions: Swiss albino, 20 mg/kg; remark: listed apart in the source
[15] = test system: Mus musculus; experiment: Effect on hypothermia in Swiss albino mouse assessed as change in rectal body temperature at 10 mg/kg, ip after 60 mins by inducible hypothermia test; type: functional, organism-based; parameters: dose 10 mg/kg
[16] = test system: Mus musculus; experiment: Effect on hypothermia in Swiss albino mouse assessed as change in rectal body temperature at 20 mg/kg, ip after 90 mins by inducible hypothermia test; type: functional, organism-based; parameters: dose 20 mg/kg
[17] = test system: Mus musculus; experiment: Effect on hypothermia in Swiss albino mouse assessed as change in rectal body temperature at 20 mg/kg, ip after 30 mins by inducible hypothermia test; type: functional, organism-based; parameters: dose 20 mg/kg
[18] = test system: Mus musculus; experiment: Effect on hypothermia in Swiss albino mouse assessed as change in rectal body temperature at 10 mg/kg, ip after 120 mins by inducible hypothermia test; type: functional, organism-based; parameters: dose 10 mg/kg
[19] = test system: Mus musculus; experiment: Effect on spontaneous locomotor activity in Swiss albino mouse assessed as number of light-beam crossings in actiometers pretreated for 30 mins at 20 mg/kg, ip measured during 30 mins post drug dose; type: functional; conditions: route intraperitoneal
[20] = test system: Mus musculus; experiment: Antidepressant activity in Swiss albino mouse assessed as reduction of immobility time at 20 mg/kg, ip administered 30 mins before test measured 6 mins test session after 2 mins habituation period by forced swimming test; type: functional; parameters: scale not given: the % may be the effect or the level left; conditions: route intraperitoneal
[21] = test system: Mus musculus; experiment: Effect on hypothermia in Swiss albino mouse assessed as change in rectal body temperature at 20 mg/kg, ip dosed 15 mins after 0.1 mg/kg, sc WAY 100635 challenge measured after 30 mins by inducible hypothermia test; type: functional, organism-based
[22] = test system: Mus musculus; experiment: Effect on hypothermia in Swiss albino mouse assessed as change in rectal body temperature at 20 mg/kg, ip dosed 15 mins after 0.1 mg/kg, sc WAY 100635 challenge measured after 60 mins by inducible hypothermia test; type: functional, organism-based
[23] = test system: Mus musculus; experiment: Effect on spontaneous locomotor activity in Swiss albino mouse assessed as number of light-beam crossings in actiometers pretreated for 30 mins at 20 mg/kg, ip measured during 6 mins post drug dose; type: functional; conditions: route intraperitoneal
[24] = test system: Mus musculus; experiment: Antidepressant activity in Swiss albino mouse assessed as reduction of immobility time at 10 mg/kg, ip administered 30 mins before test measured 6 mins test session after 2 mins habituation period by forced swimming test; type: functional
[25] = test system: Mus musculus; experiment: Effect on hypothermia in Swiss albino mouse assessed as change in rectal body temperature at 10 mg/kg, ip dosed 15 mins after 0.1 mg/kg, sc WAY 100635 challenge measured after 30 mins by inducible hypothermia test; type: functional, organism-based
[26] = test system: Mus musculus; experiment: Effect on hypothermia in Swiss albino mouse assessed as change in rectal body temperature at 10 mg/kg, ip dosed 15 mins after 0.1 mg/kg, sc WAY 100635 challenge measured after 60 mins by inducible hypothermia test; type: functional, organism-based
[27] = test system: Mus musculus; experiment: Antidepressant activity in Swiss albino mouse assessed as reduction of immobility time at 5 mg/kg, ip administered 30 mins before test measured 6 mins test session after 2 mins habituation period by forced swimming test; type: functional, organism-based; parameters: dose 5 mg/kg
[28] = test system: Mus musculus; experiment: Effect on spontaneous locomotor activity in Swiss albino mouse assessed as number of light-beam crossings in actiometers pretreated for 30 mins at 10 mg/kg, ip measured during 6 mins post drug dose; type: functional; conditions: route intraperitoneal
[29] = test system: Mus musculus; experiment: Effect on spontaneous locomotor activity in Swiss albino mouse assessed as number of light-beam crossings in actiometers pretreated for 30 mins at 10 mg/kg, ip measured during 30 mins post drug dose; type: functional; conditions: route intraperitoneal
[30] = species on record: Mus musculus; conditions: Swiss albino, 1.25 mg/kg
Description: Effect on hypothermia in Swiss albino mouse assessed as change in rectal body temperature at 1.25 mg/kg, ip after 90 mins by inducible hypothermia test

[31] = species on record: Mus musculus; conditions: Swiss albino, 2.5 mg/kg
Description: Effect on hypothermia in Swiss albino mouse assessed as change in rectal body temperature at 2.5 mg/kg, ip after 60 mins by inducible hypothermia test

[32] = species on record: Mus musculus; conditions: Swiss albino, 2.5 mg/kg; remark: listed apart in the source
Description: Effect on hypothermia in Swiss albino mouse assessed as change in rectal body temperature at 2.5 mg/kg, ip after 90 mins by inducible hypothermia test

[33] = species on record: Mus musculus; conditions: Swiss albino, 2.5 mg/kg; remark: listed apart in the source
Description: Effect on hypothermia in Swiss albino mouse assessed as change in rectal body temperature at 2.5 mg/kg, ip after 120 mins by inducible hypothermia test

[34] = species on record: Mus musculus; conditions: Swiss albino, 5 mg/kg
Description: Effect on hypothermia in Swiss albino mouse assessed as change in rectal body temperature at 5 mg/kg, ip dosed 15 mins after 0.1 mg/kg, sc WAY 100635 challenge measured after 30 mins by inducible hypothermia test

[35] = species on record: Mus musculus; conditions: Swiss albino, 1.25 mg/kg; remark: listed apart in the source
Description: Effect on hypothermia in Swiss albino mouse assessed as change in rectal body temperature at 1.25 mg/kg, ip after 30 mins by inducible hypothermia test

[36] = species on record: Mus musculus; conditions: Swiss albino, 2.5 mg/kg; remark: listed apart in the source
Description: Effect on hypothermia in Swiss albino mouse assessed as change in rectal body temperature at 2.5 mg/kg, ip after 30 mins by inducible hypothermia test

[37] = species on record: Mus musculus; conditions: Swiss albino, 1.25 mg/kg; remark: listed apart in the source
Description: Effect on hypothermia in Swiss albino mouse assessed as change in rectal body temperature at 1.25 mg/kg, ip after 60 mins by inducible hypothermia test

[38] = species on record: Mus musculus; conditions: Swiss albino, 1.25 mg/kg; remark: listed apart in the source
Description: Effect on hypothermia in Swiss albino mouse assessed as change in rectal body temperature at 1.25 mg/kg, ip after 120 mins by inducible hypothermia test

[39] = species on record: Mus musculus; conditions: Swiss albino, 5 mg/kg; remark: listed apart in the source
Description: Effect on hypothermia in Swiss albino mouse assessed as change in rectal body temperature at 5 mg/kg, ip dosed 15 mins after 0.1 mg/kg, sc WAY 100635 challenge measured after 60 mins by inducible hypothermia test

[40] = test system: Mus musculus; experiment: Antidepressant activity in Swiss albino mouse assessed as reduction of immobility time at 1 mg/kg, sc administered 30 mins before test measured 6 mins test session after 2 mins habituation period by forced swimming test; type: functional; parameters: scale not given: the % may be the effect or the level left; conditions: route subcutaneous
[41] = test system: Mus musculus; experiment: Antidepressant activity in Swiss albino mouse assessed as reduction of immobility time at 2 mg/kg, sc administered 30 mins before test measured 6 mins test session after 2 mins habituation period by forced swimming test; type: functional; parameters: scale not given: the % may be the effect or the level left; conditions: route subcutaneous

Chain of Sodium-dependent serotonin transporter (P31652 whole entry): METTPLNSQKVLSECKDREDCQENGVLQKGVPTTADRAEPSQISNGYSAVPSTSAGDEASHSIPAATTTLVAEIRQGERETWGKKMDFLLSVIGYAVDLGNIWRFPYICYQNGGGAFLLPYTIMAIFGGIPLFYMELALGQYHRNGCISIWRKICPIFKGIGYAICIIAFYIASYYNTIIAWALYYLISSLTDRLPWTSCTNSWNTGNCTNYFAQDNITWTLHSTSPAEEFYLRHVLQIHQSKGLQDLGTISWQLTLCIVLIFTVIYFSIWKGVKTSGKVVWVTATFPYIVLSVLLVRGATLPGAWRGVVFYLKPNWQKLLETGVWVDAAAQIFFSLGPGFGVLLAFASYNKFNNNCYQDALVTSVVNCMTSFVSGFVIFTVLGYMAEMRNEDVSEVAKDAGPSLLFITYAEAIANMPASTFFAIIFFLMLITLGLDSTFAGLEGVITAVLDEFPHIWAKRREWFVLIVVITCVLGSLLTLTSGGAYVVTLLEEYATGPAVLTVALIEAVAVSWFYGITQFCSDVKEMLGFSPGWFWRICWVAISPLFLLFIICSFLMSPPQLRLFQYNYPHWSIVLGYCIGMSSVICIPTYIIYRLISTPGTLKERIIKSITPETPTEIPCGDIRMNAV

| SMILES | Ki [1] [µM] | Ki [2] [µM] | deltaT [4] [°C] | deltaT [5] [°C] | deltaT [7] [°C] | deltaT [9] [°C] | deltaT [10] [°C] | deltaT [11] [°C] | deltaT [15] [°C] | deltaT [18] [°C] | further results |
| --- | --- | --- | --- | --- | --- | --- | --- | --- | --- | --- | --- |
| Cc1[nH]c2ccccc2c1C1CCN(CCCCn2c(=O)c(-c3ccc(F)cc3)c3n(c2=O)CCCC3)CC1 | 0.116 | 3.2 |  |  |  |  |  |  |  |  |  |
| COc1ccc(-c2c3n(c(=O)n(CCCCN4CCC(c5c[nH]c6ccccc56)CC4)c2=O)CCCC3)cc1 | 0.0716 | 0.0205 | -0.7 | -0.1 | -0.2 | -0.2 | -0.4 | -0.5 | -0.5 | -0.3 | deltaT [3]: -0.7 °C; deltaT [6]: -0.3 °C; deltaT [8]: 0.6 °C; deltaT [12]: -0.3 °C; deltaT [13]: -0.2 °C; deltaT [14]: -0.5 °C; deltaT [16]: -0.4 °C; deltaT [17]: -0.6 °C |
| COc1ccccc1-c1c2n(c(=O)n(CCCCN3CCC(c4c(C)[nH]c5ccccc45)CC3)c1=O)CCCC2 | 0.719 | 1.6 |  |  |  |  |  |  |  |  |  |
| COc1ccc2[nH]cc(C3CCN(CCCCn4c(=O)c(-c5ccc(Cl)cc5)c5n(c4=O)CCCC5)CC3)c2c1 | 0.222 | 0.0146 |  |  |  |  |  |  |  |  |  |
| COc1ccc2[nH]cc(C3CCN(CCCCn4c(=O)c(-c5ccccc5F)c5n(c4=O)CCCC5)CC3)c2c1 | 0.184 | 0.0456 | -0.7 | -0.3 | -0.4 | -0.6 | -0.6 | -0.7 | -0.8 | -0.4 | deltaT [3]: -1 °C; Activity [19]: 520; Activity [20]: 26%; deltaT [21]: -0.5 °C; deltaT [22]: -0.4 °C; Activity [23]: 272; deltaT [12]: -0.7 °C; deltaT [16]: -0.8 °C; deltaT [17]: -1.2 °C; Activity [24]: inactive |
| O=c1c(-c2ccccc2F)c2n(c(=O)n1CCCCN1CCC(c3c[nH]c4ccccc34)CC1)CCCC2 | 0.102 | 0.0278 | -1.2 | -0.1 | -0.2 | -0.2 | -0.8 | -0.3 | -1 | -0.5 | deltaT [25]: -0.6 °C; deltaT [26]: -0.4 °C; Activity [27]: inactive; Activity [28]: 217; Activity [29]: 333; Activity ([24]; route intraperitoneal): 27% |
| COc1ccc(-c2c3n(c(=O)n(CCCCN4CCC(c5c(C)[nH]c6ccccc56)CC4)c2=O)CCCC3)cc1 | 0.203 |  |  |  |  |  |  |  |  |  |  |
| COc1ccc(-c2c3n(c(=O)n(CCCCN4CCC(c5c[nH]c6ccc(OC)cc56)CC4)c2=O)CCCC3)cc1 | 0.0835 | 0.0104 |  | -0.1 | -0.3 | -0.5 |  | -1.1 |  |  | deltaT [30]: -0.4 °C; deltaT [31]: -0.6 °C; deltaT [32]: -0.6 °C; deltaT [33]: -0.5 °C; deltaT [34]: -1.2 °C; deltaT [35]: -0.3 °C; deltaT [36]: -0.8 °C; deltaT [37]: -0.4 °C; deltaT [38]: -0.2 °C; deltaT [39]: -0.9 °C |
| CCCN(CCC)C1CCc2cccc(O)c2C1 (stereo not given) [8-OH-DPAT] |  |  |  |  |  |  |  |  |  |  | Activity [40]: 45%; Activity [41]: 57% |
| Cc1ccc(-c2c3n(c(=O)n(CCCCN4CCC(c5c[nH]c6ccccc56)CC4)c2=O)CCCC3)cc1 | 0.0767 | 0.0483 | -1 | -0.2 | -0.3 | -0.6 | -0.3 | -0.6 | -0.5 | -0.2 | deltaT [25]: -0.6 °C; deltaT [26]: -0.6 °C; Activity [27]: inactive; Activity [28]: 114; Activity [29]: 221; Activity ([24]; route intraperitoneal): 34% |
